Active and inactive are the calls of the source.
Tests used:
Paired box protein Pax-8 = Paired box protein Pax-8 (Homo sapiens, UniProt Q06710); test: inhibitors of PAX8-driven TPO luciferase reporter, dose response, RMG-I cells, cherry-pick (AID 687027); type: functional, cell-based;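 further: luciferase reporter driven by Pax8 target thyroperoxidase promoter measured by SteadyGlo luminescence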
[1] = A2780 ovarian cancer cell cytotoxicity, dose response, cytotoxicity control, plate reader, dry powder samples (AID 743046); type: functional, cell-based
[2] = inhibitors of CMV-promoter luciferase reporter, dose response, counter-screen for Pax8 inhibitor project, cell-based, HEK293, luminescence, dry powder (AID 743020); type: functional
[3] = NIH:OVCAR-3 ovarian cancer cell cytotoxicity, dose response, PAX8 inhibitor project, plate reader, dry powder samples (AID 743044); type: functional, cell-based
[4] = non-specific cell cytotoxicity, dose response, cytotoxicity control for PAX8 inhibitor project, plate reader, dry powder samples (AID 743021); type: functional, cell-based
[5] = inhibitors of firefly luciferase expression or activity, dose response, H4 neuroglioma cells, luminescence (AID 1990); type: functional, cell-based
[6] = luciferase reporter signal reduction – luminescence, H4-C neuroglioblastoma cells, dose response (AID 2458); type: functional, cell-based;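 further: H4 neuroglioblastoma cells stably carrying a luciferase reporter gene fusion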
cells [7] = type: functional, cell-based
[8] = inhibitors of SNCA 5'UTR-driven reporter translation, confirmation, H4 neuroglioma cells, luminescence (AID 1988); type: functional, cell-based
[9] = inhibitors of SNCA 5'UTR-driven translation, confirmation, luminescence, H4 neuroglioblastoma cells, dose confirmation (AID 2454); type: functional, cell-based;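 further: H4 neuroglioblastoma cells carrying an alpha-synuclein 5'UTR luciferase reporter; potency for inhibition of the luciferase signal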
[10] = cytotoxicity in HEK-293T cells, dose response, cytotoxicity control for TCR NF-kB inhibitor project, luminescence, T-cell screen hits (AID 489026); type: functional, cell-based;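 further: cells exposed to compound about 14 hours before the viability readout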
P388/ADR = test: cells; type: functional; details: Mus musculus
SN12K1 = test: cells; type: functional; details: Homo sapiens
P388 = test: cells; type: functional; details: Mus musculus
[11] = CFTR ΔF508 corrector activity in bronchial cells, dose response, human bronchial epithelial cells, plate reader, cherry-pick, two tests (AID 743267); type: functional, cell-based
[12] = target: Dual specificity tyrosine-phosphorylation-regulated kinase 1A (Rattus norvegicus, UniProt Q63470); type: biochemical, Homo sapiens
[13] = HepG2 cell cytotoxicity, dose response, cytotoxicity control, ATP luminescence, cherry-pick, activator set 2 (AID 1053143); type: functional, cell-based
[14] = IGROV1 ovarian cancer cell cytotoxicity, dose response, PAX8 inhibitor project, plate reader, dry powder samples (AID 743043); type: functional, cell-based; details: IGROV-1
[15] = cytotoxicity in OVCAR8 ovarian cancer cells, dose response, PAX8 project, cell-based, plate reader, dry powder samples (AID 743197); type: functional; details: OVCAR-8
Galanin receptor type 3 = Galanin receptor type 3 (Homo sapiens, UniProt O60755); test: Fluorescence-based cell-based primary high throughput dose response assay to identify antagonists of the Galanin Receptor 3 (GalR3).; type: functional
cells [16] = type: functional, cell-based; details: HEK-CNG
Major prion protein = Major prion protein (Homo sapiens, UniProt P04156); type: functional, cell-based
cells [17] = test: cells
[18] = target: Endoplasmic reticulum aminopeptidase 1 (Homo sapiens, UniProt Q9NZ08); test: ERAP1 aminopeptidase inhibitors, dose response, biochemical, cherry-pick, set 2, plate reader (AID 743314)
[19] = ADAM10 inhibitors, peptide cleavage, dose response, biochemical, QFRET (AID 743254);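 further: ADAM10 enzyme with the DM2 quenched FRET peptide as substrate; EDANS fluorescence gain as the protease cuts the substrate; inhibitor potency against ADAM10 proteolytic activity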
[20] = target: Disintegrin and metalloproteinase domain-containing protein 17 (Homo sapiens, UniProt P78536); test: ADAM17 protease inhibitors, dose response, counter-screen for ADAM10 exosite inhibitor project, biochemical, quenched FRET substrate (AID 743253)
[21] = target: Heat shock protein HSP 90-alpha (Homo sapiens, UniProt P07900); test: Luminescence-based dose response biochemical high throughput screening assay for inhibitors of the Heat Shock Protein 90 (HSP90). [Related pubchem assays: 1831 (Summary AID.), 1846 (Confirmation screen.), 1789 (Primary screen.)]
[22] = Late stage assay provider results from the probe development effort to identify selective inhibitors of heat shock protein 90 (HSP90): Absorbance-based cell proliferation assay in SKBR3 cells.; type: functional; details: SK-BR-3
[23] = Late stage assay provider results from the probe development effort to identify selective inhibitors of heat shock protein 90 (HSP90): Absorbance-based cell proliferation assay in MCF7 cells.; type: functional
[24] = Late stage assay provider results from the probe development effort to identify inhibitors of the Plasmodium falciparum M17 Leucine Aminopeptidase (M17LAP): radiolabel-based cell-based dose response assay to identify compounds that inhibit P. falciparum growth in RBCs Set 2.; type: functional

C[C@@H]1CN([C@@H](C)CO)S(=O)(=O)c2ccc(C#CC3CCCC3)cc2O[C@H]1CN(C)Cc1cccnc1
AC50 (Paired box protein Pax-8): 8.33 µM (active)
AC50 [1]: 15 µM (active)
AC50 [2]: 47.5 µM (active)
AC50 [3]: 25.7 µM (active)
AC50 [4]: 57.1 µM (active)

CC(=O)O[C@H]1C(=O)[C@@]2(C)[C@H]([C@H](OC(=O)c3ccccc3)[C@]3(O)C[C@H](OC(=O)[C@H](O)[C@@H](NC(=O)c4ccccc4)c4ccccc4)C(C)=C1C3(C)C)[C@]1(OC(C)=O)CO[C@@H]1C[C@@H]2O [PACLITAXEL]
EC50 [5]: 10.6 µM (active)
EC50 [6]: 0.039 µM (active)
EC50 (cells [7]): 0.086 µM (active)
EC50 [8]: < 0.1 µM (active)
EC50 [9]: 0.069 µM (active)
IC50 [10]: > 80 µM (inactive)
GI50 (P388/ADR): 0.605 µM (active)
GI50 (SN12K1): 0.00327 µM (active)
GI50 (P388): 0.00569 µM (active)
AC50 [11]: 3.59 µM (active)

C=CS(=O)(=O)c1c2cc(OC)ccc2nc2ccc(OC)cc12
AC50 [12]: 0.682 µM (active)
AC50 [13]: 25.4 µM (active)

C[C@@H]1CN([C@@H](C)CO)C(=O)c2cc(NC(=O)Nc3ccc(C(F)(F)F)cc3)ccc2O[C@@H](C)CCCCO[C@H]1CN(C)Cc1ccncc1
AC50 (Paired box protein Pax-8): 8.41 µM (active)
AC50 [3]: 29.5 µM (active)
AC50 [14]: 53.7 µM (active)
AC50 [15]: 53.8 µM (active)

O=c1c(Cl)c(NCC2CCCO2)cnn1C12CC3CC(CC(C3)C1)C2 (configuration not stated)
IC50 (Galanin receptor type 3): > 29.9 µM (inactive)
EC50 (cells [16]): > 29.9 µM (inactive)

O=C(O)c1cc(-c2cccnc2)nc2ccc(Br)cc12
IC50 (Major prion protein): 13.8 µM (inactive)
IC50 (cells [17]): > 138 µM (inactive)

O=C(NCC1CC1)[C@@H]1[C@@H](CO)[C@@H]2Cn3c(ccc(/C=C/c4ccccc4)c3=O)[C@H]1N2C(=O)C1CC1
AC50 [18]: 14.7 µM (active)

O=C(NCCc1nc2ccccc2[nH]1)/C(=C/c1ccc2c(c1)OCO2)NC(=O)c1ccc(Cl)cc1Cl
IC50 [19]: > 69.5 µM (inactive)
IC50 [20]: > 69.5 µM (inactive)

COC(=O)c1ccc2nc(NC(=O)C3CC3)sc2c1
IC50 [21]: 3.82 µM (active)
IC50 [22]: > 100 µM (inactive)
IC50 [23]: 49.2 µM (inactive)

O=C(Cc1ccc(OCc2ccccc2)cc1)NO
IC50 [24]: 4.7 µM (active)

Source: ChEMBL document CHEMBL1201862, “PubChem BioAssay data set” (2004)
